Literature values in article PMC3600580 (Experimental neurology, 2012).

System: offspring
Conditions: developmental exposure, ref Kuriyama, et al., 2005, Rice, 2007, Suvorov, 2009

SMILES | activity phenotype of offspring
Brc1ccc(Oc2ccc(Br)cc2Br)c(Br)c1 [BDE-47, 2,2′,4,4′-TetraBDE] | hyperactive
Brc1c(Br)c(Br)c(Oc2c(Br)c(Br)c(Br)c(Br)c2Br)c(Br)c1Br [compound 209] | hyperactive
